# Measurements as given in US20170246111A1, “ACTIVE-LOADED PARTICULATE MATERIALS FOR TOPICAL ADMINISTRATION” (PHARMASOL GMBH, priority 2014, published 2017).
# What was measured:
# [1] = 40 min
# Procedure: 35.0% azithromycin physical mixture was as well dispersed in Milli-Q® water to get a final concentration of azithromycin of 5.6% in vials. Furthermore, 5.6% coarse drug powder was suspended in Milli-Q® water for comparison. The samples were stored at 25° C. shaking with 100 rpm in an Innova® 4230 shaker for 40 minutes. To separate the dissolved drug, the samples were first centrifuged (17,968×g; 10 minutes) and subsequently the supernatant was filtered (50 nm pore size, Whatman® 110603 filter). The drug concentration in such obtained sample was determined by HPLC.
# [2] = at 25° C. in water, Mauludin PhD thesis 2008; cited from earlier work
saturation solubility in water [1] [µg/mL],SMILES,saturation solubility Cs [2]
93,"CC[C@H]1OC(=O)[C@H](C)[C@@H](O[C@H]2C[C@@](C)(OC)[C@@H](O)[C@H](C)O2)[C@H](C)[C@@H](O[C@@H]2O[C@H](C)C[C@H](N(C)C)[C@H]2O)[C@](C)(O)C[C@@H](C)CN(C)[C@H](C)[C@@H](O)[C@]1(C)O [azithromycin raw drug powder, azithromycin]",–
–,"COc1ccc([C@@H]2CC(=O)c3c(O)cc(O[C@@H]4O[C@H](CO[C@@H]5O[C@@H](C)[C@H](O)[C@@H](O)[C@H]5O)[C@@H](O)[C@H](O)[C@H]4O)cc3O2)cc1O [hesperidin raw powder, hesperidin]",about 20 μg/ml
